Article PMC5374441 (Scientific Reports, 2017)
Where two headings read alike, the source gives them in different places. Bridge positions count the residues as written; N and C are the ends. Peptide text beside a SMILES is read from it.

Tests used:
Assay in all cases: biochemical
Format in all cases: binding
Q55K Ls-AChBP mutant = target: T1, Q55K Ls-AChBP mutant (Lymnaea stagnalis, UniProt P58154, Q74K)
T1 construct: made in house; Top10 E. coli is named only for plasmid propagation

Ls-AChBP = target: T2, Ls-AChBP (Lymnaea stagnalis, UniProt P58154)
T2 construct: made in house

Ac-AChBP = target: T3, Ac-AChBP (Aplysia californica, UniProt Q8WSF8); conditions: SEM
T3 construct: made in house

Row | SMILES | IC50 (Q55K Ls-AChBP mutant; SEM) [nM] | IC50 (Ls-AChBP; SEM) [nM] | IC50 (Ac-AChBP) [nM] | IC50 (Q55K Ls-AChBP mutant) [nM] | IC50 (Ls-AChBP) [nM] | activity at Ls-AChBP (in words) (Ls-AChBP)
1 | CC[C@H](C)[C@@H]1NC(=O)[C@H](CC(N)=O)NC(=O)[C@@H]2CCCN2C(=O)[C@H](CC(N)=O)NC(=O)[C@H](CC(N)=O)NC(=O)[C@H](C(C)C)NC(=O)[C@H](Cc2ccccc2)NC(=O)[C@@H]2CSSC[C@H](NC(=O)CNC(=O)[C@@H](N)CO)C(=O)N[C@@H](CSSC[C@@H](C(N)=O)NC1=O)C(=O)N[C@@H](CO)C(=O)N[C@@H](CC(N)=O)C(=O)N1CCC[C@H]1C(=O)N[C@@H](C)C(=O)N2 [R10F-LsIA] (H-SGCCSNPACFVNNPNIC-NH2; disulfide 3-9, 4-17) | 800 ± 260 | 110 ± 20 | 2.2 ± 0.05 | – | – | –
2 | CC[C@H](C)[C@@H]1NC(=O)[C@H](CC(N)=O)NC(=O)[C@@H]2CCCN2C(=O)[C@H](CC(N)=O)NC(=O)[C@H](CC(N)=O)NC(=O)[C@H](C(C)C)NC(=O)[C@H](CC(=O)O)NC(=O)[C@@H]2CSSC[C@H](NC(=O)CNC(=O)[C@@H](N)CO)C(=O)N[C@@H](CSSC[C@@H](C(N)=O)NC1=O)C(=O)N[C@@H](CO)C(=O)N[C@@H](CC(N)=O)C(=O)N1CCC[C@H]1C(=O)N[C@@H](C)C(=O)N2 [R10D-LsIA] (H-SGCCSNPACDVNNPNIC-NH2; disulfide 3-9, 4-17) | – | – | 8370 | > 10000 | > 10000 | inactive
3 | CC[C@H](C)[C@@H]1NC(=O)[C@H](CC(N)=O)NC(=O)[C@@H]2CCCN2C(=O)[C@H](CC(N)=O)NC(=O)[C@H](CCC(N)=O)NC(=O)[C@H](C(C)C)NC(=O)[C@H](CCCNC(=N)N)NC(=O)[C@@H]2CSSC[C@H](NC(=O)CNC(=O)[C@@H](N)CO)C(=O)N[C@@H](CSSC[C@@H](C(N)=O)NC1=O)C(=O)N[C@@H](CO)C(=O)N[C@@H](CC(N)=O)C(=O)N1CCC[C@H]1C(=O)N[C@@H](C)C(=O)N2 [N12Q-LsIA] (H-SGCCSNPACRVQNPNIC-NH2; disulfide 3-9, 4-17) | – | 2440 ± 750 | 55.2 ± 0.9 | – | – | –
4 | CC[C@H](C)[C@@H]1NC(=O)[C@H](CC(N)=O)NC(=O)[C@@H]2CCCN2C(=O)[C@H](CC(N)=O)NC(=O)[C@H](CC(=O)O)NC(=O)[C@H](C(C)C)NC(=O)[C@H](CCCNC(=N)N)NC(=O)[C@@H]2CSSC[C@H](NC(=O)CNC(=O)[C@@H](N)CO)C(=O)N[C@@H](CSSC[C@@H](C(N)=O)NC1=O)C(=O)N[C@@H](CO)C(=O)N[C@@H](CC(N)=O)C(=O)N1CCC[C@H]1C(=O)N[C@@H](C)C(=O)N2 [N12D-LsIA] (H-SGCCSNPACRVDNPNIC-NH2; disulfide 3-9, 4-17) | – | – | 5550 | – | > 10000 | –
5 | CC[C@H](C)[C@@H]1NC(=O)[C@H](CC(N)=O)NC(=O)[C@@H]2CCCN2C(=O)[C@H](CC(N)=O)NC(=O)[C@H](CC(N)=O)NC(=O)[C@H](C(C)C)NC(=O)[C@H](CCSC)NC(=O)[C@@H]2CSSC[C@H](NC(=O)CNC(=O)[C@@H](N)CO)C(=O)N[C@@H](CSSC[C@@H](C(N)=O)NC1=O)C(=O)N[C@@H](CO)C(=O)N[C@@H](CC(N)=O)C(=O)N1CCC[C@H]1C(=O)N[C@@H](C)C(=O)N2 [R10M-LsIA] (H-SGCCSNPACMVNNPNIC-NH2; disulfide 3-9, 4-17) | 7100 ± 2500 | 500 ± 160 | 1.88 ± 0.65 | – | – | –
6 | CC[C@H](C)[C@@H]1NC(=O)[C@H](CC(N)=O)NC(=O)[C@@H]2CCCN2C(=O)[C@H](CC(N)=O)NC(=O)[C@H](CC(C)C)NC(=O)[C@H](C(C)C)NC(=O)[C@H](CCCNC(=N)N)NC(=O)[C@@H]2CSSC[C@H](NC(=O)CNC(=O)[C@@H](N)CO)C(=O)N[C@@H](CSSC[C@@H](C(N)=O)NC1=O)C(=O)N[C@@H](CO)C(=O)N[C@@H](CC(N)=O)C(=O)N1CCC[C@H]1C(=O)N[C@@H](C)C(=O)N2 [N12L-LsIA] (H-SGCCSNPACRVLNPNIC-NH2; disulfide 3-9, 4-17) | – | – | 61 ± 7 | – | > 10000 | –
